Results on one molecule are retold here after BindingDB's records for doi:10.1021/jm980551o (Novartis, 1999).

The assay can be described thus: Inhibition of EGF-dependent mouse keratinocyte MK cell proliferation.

The molecule `COc1cc2ncnc(Nc3cccc(Cl)c3)c2cc1OC` registered an IC50 of under 0.1 µM.
